Consider one compound from PMC6597546, “Identification of a potent benzoxaborole drug candidate for treating cryptosporidiosis” (Nature Communications, 2019).

SMILES strings stand for the structures. Where “and” joins values, the source holds several entries; their conditions need not be identical. Identical values can stand only once. Like-named read-outs stand apart in the source and are kept apart here.

A short description of data set [1]: 7-day repeated oral dose toxicity study in rats.
Method: (§1) A repeated oral dose toxicity and separate toxicokinetics (TK) study were performed in male rats by WuXi AppTec Company (Suzhou, China). […] Animals were individually housed in solid bottom plastic cages with bedding in compliance with the US Animal Welfare Act. All rat studies were performed using ∼8-week-old Sprague-Dawley male rats (Rattus novegicus)/Crl: CD[SD] […] Cage side clinical observations of condition and behavior (i.e., gait, stool, activity level, atonia, coat soiling and grooming, skin turgor, posture, priapism, piloerection) were performed twice daily during the dosing phase, and weights and food consumption were measured daily. At termination, all study animals were evaluated for erythrocyte count, absolute reticulocyte count, alkaline phosphatase, and triglycerides by fasting the animals overnight and obtaining blood from the abdominal aorta at necropsy as a terminal procedure under deep anesthesia (pentobarbital). A complete necropsy and histopathologic studies (hematoxylin and eosin staining) of large intestine, small intestine, stomach, and any gross lesions were performed on all animals on day 7 of dosing. […] Serum was collected from vehicle-control animals at 1 h and 4 h after dosing on days 1 and 7. […] Following completion of blood collection, TK animals were euthanized by CO2 inhalation and exsanguination without necropsy.
Data set [2] has as its system C. parvum invasion of HCT-8 host cells. Put plainly: HCT-8 host cell invasion assay. It is filed as cell-based, Cryptosporidium parvum. Particulars: HCT-8 host cells, 3 h. The protocol: The invasion assay, DNA replication assay, asexual to sexual stage conversion, and time-kill curve assays were performed using fluorescence microscopy to enumerate parasites and host cell nuclei. Staining protocols are individually described for each assay. Unless noted otherwise, the details of image acquisition were as follows. An inverted Nikon Eclipse Ti2000 microscope with an automated stage and Perfect Focus was used with NIS-Elements Advanced Research software (Nikon, USA, version 4.30.01) to image the wells. The microscope was programmed to focus on the center of each well and then take a 3 × 3 composite image per well using a 20 × (0.45 NA) objective. Images were exported as .tiff files and parasites and host nuclei counted using a custom macro on ImageJ (National Institutes of Health, version 1.52a). Data were analyzed using Microsoft Excel and GraphPad Prism (version 6.01).
Host cell invasion was assayed by allowing C. parvum to invade host cell monolayers in the presence of compound, and enumerating parasites and host cells after just 3 h (i.e., before completion of a parasite division cycle)[38]. HCT-8 cells were grown in RPMI media supplemented with 120 U per mL penicillin and 120 μg per mL streptomycin and 10% heat inactivated fetal bovine serum (complete media) and C. parvum Iowa isolate oocysts from Bunch Grass Farms (Deary, ID) were used for infection. When cells reached a confluence of >99%, media was removed and replaced with 25 µL per well of fresh media containing twice the indicated concentrations of compounds and incubated for 1 h at 37 °C in a humidified CO2 incubator. In the meantime, oocysts were induced for excystation by first treating with 10 mM hydrochloric acid (diluted with distilled water) for 10 min at 37 °C followed by 2 mM sodium taurocholate (in phosphate buffered saline (PBS) with calcium and magnesium) for 10 min at 16 °C. Before and after each treatment, oocysts were spun down at 14,000 × g for 4.5 min and supernatant was removed. […]

The next data set in a line: in vivo. Particulars: male, Sprague-Dawley, rat, po.
Data set [3] deals with C. parvum (University of Arizona Iowa isolate). It is filed as in vivo, C57BL/6 IFN-γ−/− mice. The protocol: Interferon gamma (IFN-γ) knockout mice were used to model acute Cryptosporidium infection. All IFN-γ knockout mouse studies were performed in compliance with animal care guidelines and were approved by the Explora BioLabs (San Diego, CA) Institutional Animal Care and Use Committee. Four-week-old female C57BL/6 IFN-γ^−/− mice with normal flora were purchased from The Jackson laboratory and acclimated for 3 days prior to infection by oral gavage with ∼10^6 C. parvum Iowa isolate oocysts (Sterling Laboratory, University of Arizona) suspended in sterile distilled water. At the indicated times following infection, mice were treated with compound vehicle alone, clofazimine (positive control), or once daily AN7973 at the indicated doses. Fecal parasite shedding was measured by isolating oocysts using sucrose gradient centrifugation. Sheather’s sucrose solution was freshly prepared by dissolving 156.25 g sucrose and 2.5 mL phenol in 100 mL water. Two sucrose solutions were prepared: (A) specific gravity of 1.103 (33% Sheather’s and 0.1% Tween 80 in PBS) and (B) specific gravity of 1.064 (20% Sheather’s and 0.1% Tween 80 in PBS). In a 2 mL microfuge tube, a gradient was prepared by laying 0.75 mL of solution A, then carefully laying 0.75 mL of solution B, slowly as to prevent mixing of the two layers. Fecal pellets were removed from storage, and homogenized by vortexing and pipetting. 0.2 mL fecal homogenate was overlaid on top of gradient in each microfuge tube. Oocysts were floated from feces by centrifugation at 1000 × g for 20 min and collected with a pipet tip from the 1.064/1.103 specific gravity interface between solutions A and B. Oocysts were rinsed once in cold PBS, pelleted by centrifugation at 15,000 × g for 10 min, and resuspended in PBS. Isolated oocysts were then stained with a fluorescein isothiocyanate-conjugated mouse anti-Cryptosporidium antibody (Bio-Rad catalog# 2402-3007 F; 0.25 µg per sample) and quantified using a Guava EasyCyte flow cytometer and CytoSoft data acquisition software (version 5.3; Guava Technologies, Inc.). Oocysts per milliliter of sample were normalized to counts per milligram of feces.

In a further data set the target is T1, hERG K+ ion channel (Homo sapiens, UniProt Q12809).
T1 construct: Ricerca Biosciences (Taipei, Taiwan), contract laboratory
Put plainly: hERG radioligand binding competition. Particulars: 10 µM test compound, 1 h at 25 °C. The protocol: In vitro safety profiling studies were conducted by Ricerca Biosciences (Taipei, Taiwan) and WuXi AppTec (Suzhou, China). Ricerca performed a Lead Profiling and Adverse Reaction Enzyme panel of 109 off-target enzymes and receptors. This included the hERG K+ ion channel, which is associated with cardiac tachyarrhythmias, and used a radioligand binding competition format with 10 µM test compound for 1 h at 25 °C. For the enzyme and receptor panel, competitive inhibition at 10 µM of test compound was the most common assay format. The AMES bacterial reverse mutation assay detects point mutations in Escherichia coli and Salmonella typhimurium as an indicator of mutagenic activity. Bacterial strains were obtained from Molecular Toxicology (Boone, NC).
In general terms: The hERG channel carries a current that helps repolarise heart muscle cells.

T1 sequence (Q12809 whole entry): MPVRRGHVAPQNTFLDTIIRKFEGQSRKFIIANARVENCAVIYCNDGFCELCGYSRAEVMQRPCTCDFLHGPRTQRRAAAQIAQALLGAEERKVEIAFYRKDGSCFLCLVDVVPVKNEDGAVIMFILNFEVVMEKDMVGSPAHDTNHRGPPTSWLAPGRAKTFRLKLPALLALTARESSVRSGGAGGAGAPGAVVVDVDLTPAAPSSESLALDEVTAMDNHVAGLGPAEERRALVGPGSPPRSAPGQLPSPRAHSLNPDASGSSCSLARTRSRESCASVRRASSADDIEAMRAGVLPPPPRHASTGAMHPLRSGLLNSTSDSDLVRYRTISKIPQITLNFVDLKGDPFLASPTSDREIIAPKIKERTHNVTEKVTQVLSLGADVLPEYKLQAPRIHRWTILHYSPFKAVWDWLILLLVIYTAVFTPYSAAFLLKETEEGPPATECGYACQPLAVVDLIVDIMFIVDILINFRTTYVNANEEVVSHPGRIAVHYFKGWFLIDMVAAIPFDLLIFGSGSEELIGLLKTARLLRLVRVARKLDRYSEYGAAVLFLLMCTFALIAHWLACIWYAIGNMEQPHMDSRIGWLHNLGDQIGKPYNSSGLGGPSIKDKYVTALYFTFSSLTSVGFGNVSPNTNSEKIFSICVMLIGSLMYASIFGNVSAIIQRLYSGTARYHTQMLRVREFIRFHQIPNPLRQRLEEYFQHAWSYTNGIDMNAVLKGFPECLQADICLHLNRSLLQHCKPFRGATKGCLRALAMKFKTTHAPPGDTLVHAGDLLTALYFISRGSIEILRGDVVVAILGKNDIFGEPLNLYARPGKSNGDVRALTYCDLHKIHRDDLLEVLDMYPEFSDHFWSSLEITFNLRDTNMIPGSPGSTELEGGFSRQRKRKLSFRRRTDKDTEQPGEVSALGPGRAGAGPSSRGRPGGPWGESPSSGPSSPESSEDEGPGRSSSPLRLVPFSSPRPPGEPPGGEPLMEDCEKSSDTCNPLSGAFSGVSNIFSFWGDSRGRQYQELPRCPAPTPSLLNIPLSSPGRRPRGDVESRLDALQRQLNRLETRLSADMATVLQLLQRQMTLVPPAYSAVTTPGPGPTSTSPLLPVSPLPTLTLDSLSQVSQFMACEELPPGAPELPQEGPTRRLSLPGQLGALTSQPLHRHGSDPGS
Method for in vivo: as §1

As to `CC1(C)OB(O)c2cc(NC(=O)c3ccc(-n4cccn4)cc3Cl)ccc21` [AN7973], the tolerability in rats result in data set [1] (80 mg per kg per day oral gavage, seven days, male rats) is “well tolerated”. For the same compound, in data set [1] (80 mg·kg-1·d-1, mean ± SD), the “Alkaline phosphatase on day 8” value came to 188 ± 17 U·L-1, the “Average weight on day 1” value amounted to 260.24 g, the “Average weight on day 7” value is given as 305.36 ± 8.8 g and the “Reticulocyte count on day 8” value is given as 563.2 ± 66.6 ×10^9 per L. Moreover, in data set [1] (80 mg·kg-1·d-1, mean ± SD), the “Total food consumption (days 1-7)” value came out at 156.1 ± 10.1 g and the “Triglycerides on day 8” value was determined as 0.39 ± 0.16 mmol/L. In addition, the “Mortality (unscheduled deaths)” value in data set [1] (80 mg·kg-1·d-1, n=5) is reported as 0. Besides, the “activity in C. parvum invasion assay” value in data set [2] is “no activity”. In “in vivo”, the no observed adverse effect level (NOAEL) (usually the highest dose or exposure tested at which no adverse effect was seen) at 7 days was greater than 80 mg/kg/day. For the same compound, the “fecal oocyst shedding, individual mice” value in data set [3] (10 mg/kg QD from day 4, day p.i. 8) was 5.45 and 13 (2×) and 10. The “fecal oocyst shedding, individual mice” value in data set [3] (10 mg/kg QD from day 4, day p.i. 14) was 11 and 15 (2×) and 21. In addition, the “fecal oocyst shedding, individual mice” value in data set [3] (25 mg/kg QD from day 4, day p.i. 7) was 3 (2×) and 6 and 9. In data set [3] (5, 10, 25 mg per kg once daily oral, efficacy at 10 mg per kg, maximal efficacy similar to clofazimine), the “efficacy in IFN-γ KO mouse” value is recorded as “dose-dependent efficacy”. Further, in data set [3] (mouse, in vivo), the “adverse effects in IFN-γ KO mice” value is recorded as “no adverse effects”. Further, the hERG inhibition entry on hERG K+ ion channel is recorded as “negative”.
